Among the data in patent US20230091225A1, “Bifunctional chimeric heterocyclic compounds for targeted degradation of androgen receptors and use thereof” (HINOVA PHARMACEUTICALS INC., priority 2019, published 2023) are DC50 and Dmax values, retold here.

The experiment deals with T1, androgen receptor (AR) (Homo sapiens, UniProt P10275).
T1 sequence (P10275 1-920): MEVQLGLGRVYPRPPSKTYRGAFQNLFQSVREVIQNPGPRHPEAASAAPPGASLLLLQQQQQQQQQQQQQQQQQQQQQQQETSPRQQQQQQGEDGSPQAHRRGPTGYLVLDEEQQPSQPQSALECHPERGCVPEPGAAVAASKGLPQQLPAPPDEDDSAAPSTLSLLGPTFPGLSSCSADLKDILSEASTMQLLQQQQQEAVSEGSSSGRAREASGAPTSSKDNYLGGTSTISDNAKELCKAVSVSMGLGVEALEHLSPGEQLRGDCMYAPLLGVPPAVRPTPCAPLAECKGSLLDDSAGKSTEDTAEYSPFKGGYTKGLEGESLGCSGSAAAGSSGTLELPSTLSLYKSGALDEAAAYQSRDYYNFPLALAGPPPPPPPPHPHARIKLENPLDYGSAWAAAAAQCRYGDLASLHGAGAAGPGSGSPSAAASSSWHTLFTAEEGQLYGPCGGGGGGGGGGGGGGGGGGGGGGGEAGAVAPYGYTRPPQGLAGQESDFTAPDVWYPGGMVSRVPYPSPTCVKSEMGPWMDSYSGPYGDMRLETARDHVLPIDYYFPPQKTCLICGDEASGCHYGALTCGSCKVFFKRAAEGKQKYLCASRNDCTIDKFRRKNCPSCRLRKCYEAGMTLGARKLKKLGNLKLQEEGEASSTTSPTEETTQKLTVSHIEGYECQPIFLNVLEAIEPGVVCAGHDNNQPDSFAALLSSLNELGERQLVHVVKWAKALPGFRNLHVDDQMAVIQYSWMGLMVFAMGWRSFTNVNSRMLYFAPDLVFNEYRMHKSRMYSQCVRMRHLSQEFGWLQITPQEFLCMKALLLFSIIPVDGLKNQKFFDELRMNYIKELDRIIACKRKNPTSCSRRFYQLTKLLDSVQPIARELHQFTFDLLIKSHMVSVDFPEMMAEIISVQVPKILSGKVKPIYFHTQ
The experiment can be described thus: Degradation of androgen receptor (AR) protein in VCaP cells by ELISA. In kind it is cell-based. The note with it: for Dmax: VCaP. Background: In an ELISA, binding on a coated surface is turned into a signal by an enzyme label.

Where [1] appears, read: AR degradation, VCaP cells, 16 h, ELISA, Table 3-1, read-out: DC50.
The mark [2] stands for this setting: AR degradation, VCaP cells, 16 h, ELISA, Table 3-1, read-out: Dmax (%).

Structures are written as SMILES. Read-outs that look alike come from different tables or passages of the source.

`N#Cc1ccc(O[C@H]2CC[C@H](NC(=O)c3ccc(N4CCC(CN5CCC6(CC5)CN(c5cc7c(cc5F)C(=O)N(C5CCC(=O)NC5=O)C7=O)C6)CC4)nn3)CC2)cc1` (some centres unmarked) [Compound 132, N-((1r,4r)-4-(4-cyanophenoxy)cyclohexyl)-6-(4-((2-(2-(2,6-dioxapiperidin-3-yl)-6-fluoro-1,3-dioxoisoindolin-5-yl)-2,7-diazaspiro[3.5]nonan-7-yl)methyl)piperidin-1-yl)pyridazine-3-carboxamide] had a maximal degradation (Dmax) of 60 to 80%. In addition, the DC50 under setting [1] is 10 to 100 nM.
In the case of `[2H]C([2H])([2H])N(C(=O)c1ccc(N2CCC(CN3CCN(c4cc5c(cc4F)C(=O)N(C4CCC(=O)NC4=O)C5=O)CC3)CC2)nn1)[C@H]1CC[C@H](Oc2ccc(C#N)c(Cl)c2)CC1` (some centres unmarked) [Compound 133, N-((1r,4r)-4-(3-chloro-4-cyanophenoxy)cyclohexyl)-6-(4-((4-(2-(2,6-dioxopiperidin-3-yl)-6-fluoro-1,3-dioxoisoindolin-5-yl)piperazin-1-yl)methyl)piperidin-1-yl)-N-deuteromethyl-pyridazine-3-amide], the DC50 was > 300 nM and the greatest degradation seen (Dmax) was < 40%.
Consider `N#Cc1ccc(O[C@H]2CC[C@H](NC(=O)c3ncc(N4CCC(CN5CCC6(CC5)CN(c5ccc7c(c5)C(=O)N(C5CCC(=O)NC5=O)C7=O)C6)CC4)cn3)CC2)cc1Cl` (some centres unmarked) [Compound 135], for which the half-maximal degradation concentration (DC50) under setting [1] is > 300 nM. In addition, under setting [2], the maximal degradation (Dmax) is < 40%.
As to `N#Cc1ccc(O[C@H]2CC[C@H](NC(=O)c3ccc(N4CCC(CN5CCC(Oc6ccc7c(c6)C(=O)N(C6CCC(=O)NC6=O)C7=O)CC5)CC4)nn3)CC2)cc1Cl` (some centres unmarked) [Compound 147], under setting [1], the 50% degradation concentration (DC50) lay in the range of 10 to 100 nM. Further, the greatest degradation seen (Dmax) under setting [2] was 60 to 80%.
As for `N#Cc1ccc(O[C@H]2CC[C@H](NC(=O)c3ncc(N4CCC(CN5CCC6(CC5)CN(c5cc7c(cc5F)C(=O)N(C5CCC(=O)NC5=O)C7=O)C6)CC4)cn3)CC2)cc1Cl` (some centres unmarked) [Compound 148], the 50% degradation concentration (DC50) is > 300 nM and the Dmax fell in the range of 40 to 60%.
The matching figures for `N#Cc1ccc(O[C@H]2CC[C@H](NC(=O)c3ncc(N4CCC(CN5CCC6(CC5)CN(c5ccc7c(c5)C(=O)N(C5CCC(=O)NC5=O)C7=O)C6)CC4)cn3)CC2)cc1Cl` (some centres unmarked) [Compound 149]: > 300 nM and < 40%.
With `N#Cc1ccc(O[C@H]2CC[C@H](NC(=O)c3ncc(N4CC5(CCN(CC6CCN(c7cc8c(cc7F)C(=O)N(C7CCC(=O)NC7=O)C8=O)CC6)CC5)C4)cn3)CC2)cc1Cl` (some centres unmarked) [Compound 150], the greatest degradation seen (Dmax) is < 40%. Further, under setting [1], the DC50 was > 300 nM.
Turning to `N#Cc1ccc(O[C@H]2CC[C@H](NC(=O)c3ccc(N4CCC(CN5CCC6(CC5)CN(c5ccc7c(c5)C(=O)N(C5CCC(=O)NC5=O)C7=O)C6)CC4)nn3)CC2)cc1C(F)(F)F` (some centres unmarked) [Compound 151], the DC50 is < 10 nM and the Dmax was > 80%.
`N#Cc1ccc(O[C@H]2CC[C@H](NC(=O)c3ccc(N4CCC(CN5CCC6(CC5)CN(c5cc7c(cc5F)C(=O)N(C5CCC(=O)NC5=O)C7=O)C6)CC4)nn3)CC2)cc1C(F)(F)F` (some centres unmarked) [Compound 152]: the DC50 is 10 to 100 nM and the maximal degradation (Dmax) is > 80%.
For `[2H]C([2H])([2H])Oc1cc(O[C@H]2CC[C@H](NC(=O)c3ccc(N4CCC(CN5CCC6(CC5)CN(c5ccc7c(c5)C(=O)N(C5CCC(=O)NC5=O)C7=O)C6)CC4)nn3)CC2)ccc1C#N` (some centres unmarked) [Compound 153] the same measures were < 10 nM and > 80%.
For `CCOc1cc(O[C@H]2CC[C@H](NC(=O)c3ccc(N4CCC(CN5CCC6(CC5)CN(c5ccc7c(c5)C(=O)N(C5CCC(=O)NC5=O)C7=O)C6)CC4)nn3)CC2)ccc1C#N` (some centres unmarked) [Compound 154] the same measures were < 10 nM and > 80%.
The matching figures for `COCCOc1cc(O[C@H]2CC[C@H](NC(=O)c3ccc(N4CCC(CN5CCC6(CC5)CN(c5ccc7c(c5)C(=O)N(C5CCC(=O)NC5=O)C7=O)C6)CC4)nn3)CC2)ccc1C#N` (some centres unmarked) [Compound 155]: < 10 nM and > 80%.
On to `N#Cc1ccc(O[C@H]2CC[C@H](NC(=O)c3ccc(N4CCC5(CCN(C6CCN(c7cc8c(cc7F)C(=O)N(C7CCC(=O)NC7=O)C8=O)CC6)C5)C4)nn3)CC2)cc1Cl` (some centres unmarked) [Compound 166, N-((1r,4r)-4-(3-chloro-4-cyanophenoxy)cyclohexyl)-6-(7-(1-(2-(2,6-dioxopiperidin-3-yl)-6-fluoro-1,3-dioxoisoindolin-5-yl)piperidine-4-yl)-2,7-diazaspiro[4.4]nonan-2-yl)pyridazine-3-formamide], for which the 50% degradation concentration (DC50) under setting [1] was < 10 nM. Further, under setting [2], the greatest degradation seen (Dmax) was > 80%.
For `C[C@H]1CN(c2ccc(C(=O)N[C@H]3CC[C@H](Oc4ccc(C#N)c(Cl)c4)CC3)nn2)CCN1C[C@H]1[C@@H]2CN(c3cc4c(cc3F)C(=O)N(C3CCC(=O)NC3=O)C4=O)C[C@@H]21` (some centres unmarked) [Compound 168] the same measures were < 10 nM and > 80%.
`C[C@H]1CN(c2cnc(C(=O)N[C@H]3CC[C@H](Oc4ccc(C#N)c(Cl)c4)CC3)cn2)CCN1C[C@H]1[C@@H]2CN(c3cc4c(cc3F)C(=O)N(C3CCC(=O)NC3=O)C4=O)C[C@@H]21` (some centres unmarked) [Compound 169]: the DC50 under setting [1] was in the range of 10 to 100 nM. For the same molecule, the Dmax under setting [2] lay within 60 to 80%.
The matching figures for `C[C@H]1CN(C[C@@H]2[C@H]3CN(c4cc5c(cc4F)C(=O)N(C4CCC(=O)NC4=O)C5=O)C[C@@H]23)CCN1c1ccc(C(=O)N[C@H]2CC[C@H](Oc3ccc(C#N)c(Cl)c3)CC2)nn1` (some centres unmarked) [Compound 170]: < 10 nM and > 80%.
For `C[C@H]1CN(C[C@@H]2[C@H]3CN(c4cc5c(cc4F)C(=O)N(C4CCC(=O)NC4=O)C5=O)C[C@@H]23)CCN1c1cnc(C(=O)N[C@H]2CC[C@H](Oc3ccc(C#N)c(Cl)c3)CC2)cn1` (some centres unmarked) [Compound 171] the same measures were 10 to 100 nM and > 80%.
The matching figures for `N#Cc1ccc(O[C@H]2CC[C@H](NC(=O)c3cnc(N4CCC(CN5CCC6(C5)CN(c5cc7c(cc5F)C(=O)N(C5CCC(=O)NC5=O)C7=O)C6)CC4)cn3)CC2)cc1Cl` (some centres unmarked) [Compound 186, N-((1r,4r)-4-(3-chloro-4-cyanophenoxy)cyclohexyl)-5-(4-((2-(2-(2,6-dioxopiperidin-3-yl)-6-fluoro-1,3-dioxoisoindolin-5-yl)-2,6-diazaspiro[3.4]octan-6-yl)methyl)piperidin-1-yl)pyrazine-2-carboxamide]: < 10 nM and > 80%.
On to `N#Cc1ccc(O[C@H]2CC[C@H](NC(=O)c3cnc(N4CCC(CN5CCC6(C5)CN(c5ccc7c(c5)C(=O)N(C5CCC(=O)NC5=O)C7=O)C6)CC4)cn3)CC2)cc1Cl` (some centres unmarked) [Compound 187, N-((1r,4r)-4-(3-chloro-4-cyanophenoxy)cyclohexyl)-5-(4-((2-(2-(2,6-dioxopiperidin-3-yl)-1,3-dioxoisoindolin-5-yl)-2,6-diazaspiro[3.4]octan-6-yl)methyl)piperidin-1-yl)pyrazine-2-carboxamide], for which the DC50 under setting [1] was < 10 nM. Further, the Dmax under setting [2] is > 80%.
For `N#Cc1ccc(O[C@H]2CC[C@H](NC(=O)c3cnc(N4CCC(CN5CC6(CCN(c7cc8c(cc7F)C(=O)N(C7CCC(=O)NC7=O)C8=O)C6)C5)CC4)cn3)CC2)cc1Cl` (some centres unmarked) [Compound 188, N-((1r,4r)-4-(3-chloro-4-cyanophenoxy)cyclohexyl)-5-(4-((6-(2-(2,6-dioxopiperidin-3-yl)-6-fluoro-1,3-dioxoisoindolin-5-yl)-2,6-diazaspiro[3.4]octan-2-yl)methyl)piperidin-1-yl)pyrazine-2-carboxamide] the same measures were < 10 nM and > 80%.
For `N#Cc1ccc(O[C@H]2CC[C@H](NC(=O)c3cnc(N4CCC5(CN(CC6CCN(c7cc8c(cc7F)C(=O)N(C7CCC(=O)NC7=O)C8=O)CC6)C5)C4)cn3)CC2)cc1Cl` (some centres unmarked) [Compound 189, N-((1r,4r)-4-(3-chloro-4-cyanophenoxy)cyclohexyl)-5-(2-((1-(2-(2,6-dioxopiperidin-3-yl)-6-fluoro-1,3-dioxoisoindolin-5-yl)piperidine-4-yl)methyl)-2,6-diazaspiro[3.4]octan-6-yl)pyrazine-2-carboxamide] the same measures were < 10 nM and > 80%.
On to `N#Cc1ccc(O[C@H]2CC[C@H](NC(=O)c3ccc(N4CCC5(CC4)CN(CC4CCN(c6ccc7c(c6)C(=O)N(C6CCC(=O)NC6=O)C7=O)CC4)C5)nn3)CC2)cc1Cl` (some centres unmarked) [Compound 190, N-((1r,4r)-4-(3-chloro-4-cyanophenoxy)cyclohexyl)-6-(2-((1-(2-(2,6-dioxopiperidin-3-yl)-1,3-dioxoisoindolin-5-yl)piperidine-4-yl)methyl)-2,7-diazaspiro[3.5]nonan-7-yl)pyridazine-3-formamide], for which, under setting [1], the 50% degradation concentration (DC50) is < 10 nM. Also, under setting [2], the Dmax is > 80%.

What is called DC50 is the concentration giving 50% degradation. By Dmax is commonly meant the greatest extent of degradation seen.
